In brackets after ≈: the same amount, converted by molar mass.
Tests used:
Assay in all cases: MIC, two-fold dilution method on Müller-Hinton agar
Format in all cases: cell-based
Conditions in all cases: incubated at 37°C for 20 hours
[1] = test system: Shigella flexneri ATCC 11836
Procedure: (§1) The same procedures as described in Example 163 were repeated using 7-amino-1,8-dimethyl[1,3]imidazo[1,2-c] pyrimidine-5-thione prepared in Preparation Example 36 in place of 7-amino-1-methyl[1,3]imidazo[1,2-c]pyrimidine-5-thione to yield 190mg and 180mg of the title compound(a) and (b), respectively, as white solids.
(§2) These MIC values were taken by employing a two-fold dilution method: that is, two-fold serial dilutions of each of the test compounds were made and dispersed in a Müller-Hinton agar medium; 2µl of the standard test strain which had the 10⁷ CFU(Colony Forming Unit) per ml was inoculated on the medium; and these were incubated at 37°C for 20 hours.

[2] = test system: Shigella sonnei ATCC 11060
Procedure: as §1, §2

[3] = test system: Pseudomonas aeruginosa ATCC 10145
Procedure: as §1, §2

[4] = test system: Proteus vulgaris ATCC 6059
Procedure: as §1, §2

[5] = test system: Staphylococcus epidermidis ATCC 12228
Procedure: as §1, §2

[6] = test system: Escherichia coli ATCC 10536
Procedure: as §1, §2

[7] = test system: Enterobacter cloacae ATCC 27508
Procedure: as §1, §2

[8] = test system: Salmonella typhimurium ATCC 14028
Procedure: as §1, §2

[9] = test system: Micrococcus luteus ATCC 9341
Procedure: as §1, §2

[10] = test system: Pseudomonas aeruginosa ATCC 27853
Procedure: as §1, §2

[11] = test system: Citrobacter freundii ATCC 8090
Procedure: as §1, §2

[12] = test system: Staphylococcus aureus ATCC 6538p
Procedure: as §1, §2

[13] = test system: Streptococcus faecalis ATCC 29212
Procedure: as §1, §2

[14] = test system: Pseudomonas aeruginosa ATCC 25619
Procedure: as §1, §2

[15] = test system: Proteus mirabilis ATCC 25933
Procedure: as §1, §2

[16] = test system: Acinetobacter calcoaceticus ATCC 15473
Procedure: as §1, §2

[17] = test system: Bacillus megaterium ATCC 9885
Procedure: as §1, §2

[18] = test system: Escherichia coli ATCC 25922
Procedure: as §1, §2

[19] = test system: Enterobacter aerogenes ATCC 29751
Procedure: as §1, §2

[20] = test system: Providencia rettgeri ATCC 9250
Procedure: as §1, §2

[21] = test system: Staphylococcus aureus ATCC 10537
Procedure: as §1, §2

[22] = test system: Morganella morganii ATCC 8076h
Procedure: as §1, §2

[23] = test system: Serratia marcescens ATCC 27117
Procedure: as §1, §2

[24] = test system: Bacillus cereus ATCC 11778
Procedure: as §1, §2

[25] = test system: Klebsiella pneumoniae ATCC 10031
Procedure: as §1, §2

Row | Compound | MIC values against the standard strains [1] | MIC values against the standard strains [2] | MIC values against the standard strains [3] | MIC values against the standard strains [4] | MIC values against the standard strains [5] | MIC values against the standard strains [6] | MIC values against the standard strains [7] | MIC values against the standard strains [8] | MIC values against the standard strains [9] | MIC values against the standard strains [10] | MIC values against the standard strains [11] | MIC values against the standard strains [12] | MIC values against the standard strains [13] | MIC values against the standard strains [14] | MIC values against the standard strains [15] | MIC values against the standard strains [16] | MIC values against the standard strains [17] | MIC values against the standard strains [18] | MIC values against the standard strains [19] | MIC values against the standard strains [20] | other results
1 | 7-[(Z)-2-(2-aminothiazol-4-yl)-2-((S-1-carboxyeth-1-oxyimino)acetamido]-3-(7-amino-1-methyl [1,2,4]triazolo[1,5-c]pyrimidinium-5-yl)thiomethyl-3-cephem-4-carboxylate [Exp. 22(S)] | 0.13 µg/mL | 0.063 µg/mL | 2 µg/mL | 0.31 µg/mL | 1 µg/mL | 0.031 µg/mL | 0.016 µg/mL | 0.25 µg/mL | 0.13 µg/mL | 2 µg/mL | 0.063 µg/mL | 4 µg/mL | >128 µg/mL | 1 µg/mL | 0.25 µg/mL | 4 µg/mL | 0.25 µg/mL | 0.13 µg/mL | 0.5 µg/mL | ≤0.008 µg/mL | MIC values against the standard strains [21]: 2 µg/mL; MIC values against the standard strains [22]: ≤0.008 µg/mL; MIC values against the standard strains [23]: 0.13 µg/mL; MIC values against the standard strains [24]: 128 µg/mL; MIC values against the standard strains [25]: 0.031 µg/mL
2 | 7-[(Z)-2-(2-aminothiazol-4-yl)-2-((R)-1-carboxyprop-1-oxyimino)acetamido]-3-(7-amino-1-methyl [1,2,4]triazolo[1,5-c]pyrimidinium-5-yl)thiomethyl-3-cephem-4-carboxylate [Exp. 86] | 0.031 µg/mL | 0.063 µg/mL | 2 µg/mL | 0.13 µg/mL | 0.25 µg/mL | 0.13 µg/mL | ≤0.008 µg/mL | 0.25 µg/mL | ≤0.008 µg/mL | 1 µg/mL | 0.13 µg/mL | 0.13 µg/mL | 16 µg/mL | 1 µg/mL | 0.13 µg/mL | 2 µg/mL | 0.031 µg/mL | 0.063 µg/mL | 0.25 µg/mL | ≤0.008 µg/mL | MIC values against the standard strains [21]: 0.13 µg/mL; MIC values against the standard strains [22]: ≤0.008 µg/mL; MIC values against the standard strains [23]: 0.25 µg/mL; MIC values against the standard strains [24]: 16 µg/mL; MIC values against the standard strains [25]: ≤0.008 µg/mL
3 | CCC(C)(O/N=C(\C(=O)NC1C(=O)N2C(C(=O)[O-])=C(CSc3nc(N)cc4n3nc(N)[n+]4C)CS[C@H]12)c1csc(N)n1)C(=O)O (stereo partly drawn) [Exp. 96(b), 7-[(Z)-2-(2-aminothiazol-4-yl)-2-(2-carboxybut-2-oxyimino)acetamido]-3-(2,7-diamino-1-methyl[1,2,4]triazolo[1,5-c]pyrimidinium-5-yl)thiomethyl-3-cephem-4-carboxylate] | 0.031 µg/mL (≈ 0.0457 µM) | 0.13 µg/mL (≈ 0.192 µM) | 2 µg/mL (≈ 2.95 µM) | 0.063 µg/mL (≈ 0.093 µM) | 0.5 µg/mL (≈ 0.738 µM) | 0.13 µg/mL (≈ 0.192 µM) | 0.063 µg/mL (≈ 0.093 µM) | 0.25 µg/mL (≈ 0.369 µM) | 0.016 µg/mL (≈ 0.0236 µM) | 1 µg/mL (≈ 1.48 µM) | 0.13 µg/mL (≈ 0.192 µM) | 1 µg/mL (≈ 1.48 µM) | 16 µg/mL (≈ 23.6 µM) | 0.5 µg/mL (≈ 0.738 µM) | 0.13 µg/mL (≈ 0.192 µM) | 4 µg/mL (≈ 5.9 µM) | 0.25 µg/mL (≈ 0.369 µM) | 0.13 µg/mL (≈ 0.192 µM) | 0.5 µg/mL (≈ 0.738 µM) | ≤0.008 µg/mL | MIC values against the standard strains [21]: 1 µg/mL (≈ 1.48 µM); MIC values against the standard strains [22]: ≤0.008 µg/mL; MIC values against the standard strains [23]: 0.13 µg/mL (≈ 0.192 µM); MIC values against the standard strains [24]: 16 µg/mL (≈ 23.6 µM); MIC values against the standard strains [25]: ≤0.008 µg/mL

Source: patent EP0582261A1, “Cephalosporin compounds and processes for the preparation thereof” (LUCKY LTD., priority 1992, dated 1994)
